Reference: patent publication US20090221559A1 (priority 2005, published 2009)
Read-outs that look alike come from different tables or passages of the source.

Key:
[1] = target: T1, HCV NS5B polymerase (His-tagged, C-terminal 21 amino acid deleted NS5B, HC-J4) (Hepatitis C virus genotype 1b, UniProt O92972); assay: NS5b polymerase assay (biochemical RdRp assay, 3H-GTP incorporation, SPA beads); parameters: species or system HCV genotype 1b
T1 construct: The cDNA encoding NS5B amino acid 1-570 (HC-J4, genotype 1b); His tag (His6, from pET-21b) (C); made in house; host or cells: E. coli BL21 (DE3)
Description: (§1) The compounds of formula (I) were tested for anti-HCV activity in an assay determining their activity against NS5b polymerase and in an HCV replicon assay
The cDNA encoding NS5B amino acid 1-570 (HC-J4, genotype 1b, pCV-J4L6S, genebank accession number AF054247) was subcloned into the Nhe I and Xho I restriction sites of pET-21b. Expression of the subsequent His-tagged C-terminal 21 amino acid deleted NS5B was performed as follows:
Following transformation in BL21 (DE3) competent cells, bacterial cells were grown in 22 liter LB/Amp media until to reach OD600=0.4-0.6. Protein expression was induced by addition of IPTG 0.4 mM, supplemented with 10 μM MgCl2, and incubated for 14-16 hrs at 20° C. Cells were harvested, resuspended in lysis buffer (20 mM Tris-HCl pH=7.5, 0.3 M NaCl, 10% glycerol, 0.1% NP40, 4 mM MgCl2, 14 mM beta-mercaptoethanol, with tablet of EDTA-free protease cocktail inhibitors) and lysed by sonification. The cell lysate was cleared by high-speed centrifugation (20K×g for 30 min), captured on Ni-NTA beads for 70 min at 4° C., and eluted with 25 mM Hepes pH 7.5, 0.5 M NaCl, 10% glycerol, 14 mM BME, 500 mM imidazole. The eluent was dialysed against 25 mM Hepes pH 7.5, 10% glycerol, 50 mM NaCl, 14 mM BME, after which the protein was further purified by heparin chromatography using the same buffer with 1 M NaCl for elution. Fractions containing pure protein were collected, dialyzed against storage buffer 25 mM Hepes pH=7.5, 300 mM NaCl, 10% glycerol, 14 mM BME), and flash-freezed in liquid nitrogen.
Measurement of HCV NS5B polymerization activity was performed by evaluating the amount of radiolabeled GTP incorporated by the enzyme in a newly synthesized RNA using heteropolymeric RNA template/primer. The highthroughput RdRp assay was carried out in 384-well plates using 200 nM enzyme, 0.1 μCi of ^3H GTP, 5 mM MgCl2, 600 nM GTP, 30 nM PolyC, 300 nM 5′-biotinylated oligo(rG13)/poly(rC) in 20 mM Tris pH 7.5, 21 mM KCl, 2.5 mM DTT, 16.7 mM NaCl and 0.17 mM EDTA. Test compounds were dissolved in dimethylsulfoxide. The test compounds were added to the preformed polymerase-template complex, and incubated at room temperature (RT) for 15 min before the addition of NTPs. The 30-μl reaction was terminated after 2 h at 25° C. upon addition of 30-μl PVT-SPA beads (Amersham Biosciences RPNQ0009, 5 mg/ml in 0.5 M EDTA).

[2] = system: HCV replicon RNA replication in Huh-7 luc/neo (Huh-Luc) cells; assay: HCV replicon assay (stable replicon cell reporter assay, luciferase read-out); assay type: cell-based, HCV type 1b
Description: as §1
The compounds of the present invention were examined for activity in the inhibition of HCV RNA replication in a cellular assay. […] The cellular assay was based on a bicistronic expression construct, as described by Lohmann et al. (1999) Science vol. 285 pp. 110-113 with modifications described by Krieger et al. (2001) Journal of Virology 75: 4614-4624, in a multi-target screening strategy. In essence, the method was as follows.
The assay utilized the stably transfected cell line Huh-7 luc/neo (hereafter referred to as Huh-Luc). This cell line harbored an RNA encoding a bicistronic expression construct comprising the wild type NS3-NS5B regions of HCV type 1b translated from an Internal Ribosome Entry Site (IRES) from encephalomyocarditis virus (EMCV), preceded by a reporter portion (FfL-luciferase), and a selectable marker portion (neo^R, neomycine phosphotransferase). The construct was bordered by 5′ and 3′ NTRs (non-translated regions) from HCV type 1b. Continued culture of the replicon cells in the presence of G418 (neo^R) was dependent on the replication of the HCV RNA. The stably transfected replicon cells that expressed HCV RNA, which replicated autonomously and to high levels, encoding inter alia luciferase, were used for screening the antiviral compounds.
The replicon cells were plated in 384 well plates in the presence of the test and control compounds which were added in various concentrations. Following an incubation of three days, HCV replication was measured by assaying luciferase activity (using standard luciferase assay substrates and reagents and a Perkin Elmer ViewLux™ ultraHTS microplate imager). […] The inhibitory activity of the compound on luciferase activity was monitored on the Huh-Luc cells, enabling a dose-response curve for each test compound.

[3] = NS5B Polymerase Assay IC50 (μM)
[4] = Hepatitis C virus, Huh-7, 72 h, read-out: Replicon Assay EC50 (μM), Huh-Luc cells, incubation of three days, luciferase activity
[5] = NS5B Polymerase Assay IC50, 200 nM enzyme, 3H-GTP incorporation, 2 h at 25° C.
[6] = Hepatitis C virus, Huh-7, 72 h, read-out: Replicon Assay EC50, Huh-Luc cells, three days incubation, luciferase activity
[7] = 200 nM enzyme, 3H-GTP incorporation, 2 h at 25° C., read-out: NS5B Polymerase Assay IC50
[8] = Huh-Luc cells, three days incubation, luciferase activity, read-out: Replicon Assay EC50

T1 sequence (O92972 2417-3000, looked up, stated change not applied): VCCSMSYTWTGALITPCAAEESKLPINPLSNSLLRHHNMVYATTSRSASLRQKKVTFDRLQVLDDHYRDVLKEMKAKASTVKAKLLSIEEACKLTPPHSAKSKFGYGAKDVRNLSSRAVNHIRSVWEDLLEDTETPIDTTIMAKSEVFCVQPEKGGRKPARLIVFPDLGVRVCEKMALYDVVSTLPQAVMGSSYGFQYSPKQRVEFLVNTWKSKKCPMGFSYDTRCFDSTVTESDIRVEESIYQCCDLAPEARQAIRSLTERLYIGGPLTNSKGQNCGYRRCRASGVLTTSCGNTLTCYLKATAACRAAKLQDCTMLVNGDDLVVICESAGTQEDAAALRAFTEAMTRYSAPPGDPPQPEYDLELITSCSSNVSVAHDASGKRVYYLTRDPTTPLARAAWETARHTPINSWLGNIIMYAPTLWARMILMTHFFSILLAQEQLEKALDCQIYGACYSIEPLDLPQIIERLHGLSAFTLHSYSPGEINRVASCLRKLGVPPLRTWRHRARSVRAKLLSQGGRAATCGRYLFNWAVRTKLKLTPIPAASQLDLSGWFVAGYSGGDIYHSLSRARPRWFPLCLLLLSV

SMILES | IC50 [1, 3] | EC50 [2, 4] | IC50 [1, 5] | EC50 [2, 6] | other results
COc1ccc(C2CC(=O)C3=C(C2)Nc2ccccc2NC3c2cccc(Oc3ccccc3)c2)cc1 (stereo not drawn) [compound 331] | > 42.7 µM | 7.44 µM |  |  | 
CCCCOc1ccc(C2C3=C(CC(C)(C)CC3=O)Nc3ccccc3N2C(C)=O)cc1 (stereo not drawn) [compound 127] |  |  | > 42.7 µM | 11.5 µM | 
O=C1CC(c2ccc(Cl)cc2)CC2=C1C(c1ccccc1C(F)(F)F)Nc1ccccc1N2 (stereo not drawn) [compound 349] | > 42.7 µM | 2.86 µM |  |  | 
CC1(C)CC(=O)C2=C(C1)Nc1ccccc1N(C(=O)Cc1ccc(Cl)cc1)C2c1cccnc1 (stereo not drawn) [compound 247] |  |  | > 33.3 µM | 17.3 µM | 
CCC(=O)N1c2ccccc2NC2=C(C(=O)CC(C)(C)C2)C1c1ccccc1OCc1ccccc1 (stereo not drawn) [compound 11] |  |  | > 42.7 µM | 14.7 µM | 
CCOc1cc(C2Nc3ccccc3NC3=C2C(=O)CC(c2ccc(OC)c(OC)c2)C3)cc(Br)c1O (stereo not drawn) [compound 399] | > 42.7 µM | 19.4 µM |  |  | 
CCCOc1ccccc1C1C2=C(CC(C)(C)CC2=O)Nc2ccccc2N1C(=O)CC (stereo not drawn) [compound 63] |  |  | > 42.7 µM | 5 µM | 
Cc1cc2c(cc1C)NC(c1c(F)cccc1F)C1=C(CC(C)(C)CC1=O)N2 (stereo not drawn) [compound 454] | > 42.7 µM | 3.44 µM |  |  | 
CC(=O)N1c2ccccc2NC2=C(C(=O)CC(C)(C)C2)C1c1cccc(Oc2ccccc2)c1 (stereo not drawn) [compound 135] |  |  | 54.7 µM | 2.47 µM | 
COc1ccc([C@@H]2CC(=O)C3=C(C2)Nc2ccccc2N[C@H]3c2ccc(C)s2)cc1 [compound 490] | > 42.7 µM | 24.9 µM |  |  | 
CC1(C)CC(=O)C2=C(C1)Nc1ccccc1NC2c1ccccc1OCc1ccccc1 (stereo not drawn) [compound 425] | > 42.7 µM | 13.2 µM |  |  | 
CC(C)C(=O)N1c2ccccc2NC2=C(C(=O)CC(C)(C)C2)C1c1cccnc1 (stereo not drawn) [compound 259] |  |  | 29.5 µM | > 33 µM | 
CC1(C)CC(=O)C2=C(C1)Nc1ccccc1N(C(=O)C(F)(F)F)C2c1ccc(-c2ccc(Br)cc2)o1 (stereo not drawn) [compound 278] |  |  | > 42.7 µM | 13.3 µM | 
CCCCCC(=O)N1c2ccccc2NC2=C(C(=O)CC(c3cccc([N+](=O)[O-])c3)C2)C1c1ccc(OC)cc1 (stereo not drawn) [compound 168] |  |  |  |  | IC50 [1, 7]: > 42.7 µM; EC50 [2, 8]: 3.61 µM
COc1ccc([C@@H]2CC(=O)C3=C(C2)Nc2ccccc2N[C@H]3c2cc3c(cc2[N+](=O)[O-])OCO3)cc1 [compound 485] | > 42.7 µM | 3.39 µM |  |  | 
COc1ccc(C2CC(=O)C3=C(C2)Nc2ccccc2NC3c2cc(OC)ccc2OC)cc1 (stereo not drawn) [compound 336] | > 42.7 µM | 13.8 µM |  |  | 
CC1(C)CC(=O)C2=C(C1)Nc1ccccc1NC2c1ccc(Oc2ccccc2Br)cc1 (stereo not drawn) [compound 442, 11-[4-(2-bromophenoxy)phenyl]-3,3-dimethyl-2,3,4,5,10,11-hexahydro-1H-dibenzo[b,e][1,4]diazepin-1-one] | > 133 µM | 2.71 µM |  |  | 
CC(=O)N1c2ccccc2NC2=C(C(=O)CC(C)(C)C2)C1c1ccc(OC(C)C)cc1 (stereo not drawn) [compound 114] |  |  | > 42.7 µM | > 32 µM | 

SMILES | IC50 [1, 3] | EC50 [2, 4] | IC50 [1, 5] | EC50 [2, 6] | other results
O=C1CC(c2ccccc2)CC2=C1C(c1cccc(OCc3ccccc3)c1)Nc1ccccc1N2 (stereo not drawn) [compound 373] | > 42.7 µM | 9.42 µM |  |  | 
CC(=O)N1c2ccccc2NC2=C(C(=O)CC(C)(C)C2)C1c1ccccc1Cl (stereo not drawn) [compound 112] |  |  | > 42.7 µM | > 32 µM | 
CC(=O)N1c2ccccc2NC2=C(C(=O)CC(C)(C)C2)C1c1cccc([N+](=O)[O-])c1 (stereo not drawn) [compound 103] |  |  | > 42.7 µM | > 32 µM | 
CCC(=O)N1c2ccccc2NC2=C(C(=O)CC(C)(C)C2)C1c1ccc(F)cc1 (stereo not drawn) [compound 49] |  |  | > 42.7 µM | 11.2 µM | 
CC(=O)N1c2ccccc2NC2=C(C(=O)CC(C)(C)C2)C1c1ccc(-c2cccc([N+](=O)[O-])c2)o1 (stereo not drawn) [compound 250] |  |  | > 42.6 µM | 7.95 µM | 
CCCCC(=O)N1c2ccccc2NC2=C(C(=O)CC(C)(C)C2)C1c1ccc2c(c1)OCO2 (stereo not drawn) [compound 265] |  |  | > 42.7 µM | 11.3 µM | 
O=C1C[C@@H](c2ccccc2OCc2ccccc2)CC2=C1C(c1cccc(OC(=O)c3ccc(Cl)cc3)c1)Nc1ccccc1N2 (single isomer, unassigned) [compound 512, 11-[3-(4-Chlorobenzoyloxy)phenyl]-3-(2-benzyloxyphenyl)-2,3,4,5,10,11-hexahydro-dibenzo[b,e][1,4]diazepin-1-one] | 84.5 µM | 8.42 µM |  |  | 
CC1(C)CC(=O)C2=C(C1)Nc1ccccc1NC2c1cc(Cl)ccc1Cl (stereo not drawn) [compound 438, 11-[2,5-dichlorophenyl]-3,3-dimethyl-2,3,4,5,10,11-hexahydro-1H-dibenzo[b,e][1,4]diazepin-1-one] | > 133 µM | 15.4 µM |  |  | 
COc1ccc(C2CC(=O)C3=C(C2)Nc2ccccc2NC3c2ccc(OCc3ccccc3)c(OC)c2)cc1 (stereo not drawn) [compound 385] | > 42.7 µM | 3.54 µM |  |  | 
CCC(=O)N1c2ccccc2NC2=C(C(=O)CC(C)(C)C2)C1c1ccc(OC)c(OC)c1 (stereo not drawn) [compound 84] |  |  | > 42.7 µM | 20.9 µM | 
CC1(C)CC(=O)C2=C(C1)Nc1ccccc1N(C(=O)c1ccc(F)cc1)C2c1ccc(Br)cc1 (stereo not drawn) [compound 113] |  |  | > 42.7 µM | > 32 µM | 
COc1ccc(C2C3=C(CC(C)(C)CC3=O)Nc3ccccc3N2C(=O)CC(C)C)c(OC)c1 (stereo not drawn) [compound 30] |  |  | > 42.6 µM | 23 µM | 
O=C1CC(c2ccccc2)CC2=C1C(c1ccccc1[N+](=O)[O-])Nc1ccccc1N2 (stereo not drawn) [compound 396] | > 42.7 µM | 11.3 µM |  |  | 
CCC(=O)N1c2ccccc2NC2=C(C(=O)CC(C)(C)C2)C1c1ccc(Cl)cc1 (stereo not drawn) [compound 54] |  |  | > 42.7 µM | 22.3 µM | 
COc1cccc(C2C3=C(CC(C)(C)CC3=O)Nc3ccccc3N2C(=O)Cc2ccccc2)c1 (stereo not drawn) [compound 82] |  |  | > 42.7 µM | 6.8 µM | 
Cc1ccc(C2CC(=O)C3=C(C2)Nc2ccccc2N(C(=O)c2ccccc2)C3c2ccccc2)cc1 (mixture of isomers) [compound 209] |  |  |  |  | IC50 [1, 7]: > 33.3 µM; EC50 [2, 8]: 11.8 µM
CCOc1cc(C2C3=C(CC(C)(C)CC3=O)Nc3ccccc3N2C(=O)c2ccccc2)ccc1O (stereo not drawn) [compound 64] |  |  | > 42.7 µM | 22.9 µM | 
COc1ccc([C@@H]2CC(=O)C3=C(C2)Nc2ccccc2N[C@H]3c2ccc3c(c2)OCO3)cc1OC [compound 494] | > 42.7 µM | 21.7 µM |  |  | 
